Reference: publication PMC12383646, “Identification of Two Critical Contact Residues in a Pathogenic Epitope from Tetranectin for Monoclonal Antibody Binding and Preparation of Single-Chain Variable Fragments” (Biomolecules, 2025)

Experiments:
12F1 mAb [1] = test: Indirect ELISA (iELISA) of 12F1 mAb on coated P5-5-BSA and P5-5 mutant-BSA; assay type: binding, mouse; conditions: peptide-BSA conjugate coated at 10 µg/mL; 12F1 mAb 1:2000; compared with WT P5-5 and negative control BSA; six repeated experiments (Figure 4)
Description: The P5-5 and mutants were conjugated to BSA by the EDC conjugating method. Firstly, the P5-5 and other 9 mutant peptide solutions (4 mg/mL in 0.1 M MES buffer, pH 4.7) were separately mixed with BSA solution (10 mg/mL in 0.1 M MES buffer, pH 4.7). Then, the reaction mixtures were all supplemented with 100 μL of EDC solution (10 mg/mL in deionized water) and incubated at 25 °C for 2 h to facilitate conjugation. The haptens were coupled to BSA at a molar ratio of 10:1 [14]. After a two-hour reaction, the resulting mixtures were subjected to dialysis against 0.01 M phosphate-buffered saline (PBS, pH 7.4) for 48 h. The final products were then stored at −20 °C for the following applications. The P5-5 and mutant conjugates were examined using native gel electrophoresis, and the concentration of the complete antigen was determined using the BCA protein assay kit.
Indirect ELISA (iELISA): To identify the key binding epitopes of the prepared mAb to the P5-5 epitope, P5-5-BSA, and P5-5 mutant-BSA, the antigens were coated onto 96-well plates at a concentration of 10 µg/mL [15]. Subsequently, purified 12F1 mAb diluted at 1:2000 in blocking buffer was added to the wells after blocking and washing. Following another washing step, goat anti-mouse IgG-HRP at a 1:5000 dilution in blocking buffer was added and incubated at 37 °C for 1 h. To commence color development, 100 μL of 3,3,5,5-Tetramethylbenzidine (TMB) solution was added to each well, followed by 100 μL of 2 M H2SO4. The absorbance at 450 nm was measured using a microplate reader.

12F1 mAb [2] = test: Indirect competitive ELISA (ic-ELISA) of P5-5 and mutant peptides against 12F1 mAb; assay type: binding, mouse; conditions: coating P5-5-OVA 5 μg/mL; free peptide competitor 0.61 ng/mL-20 μg/mL; pre-mixed with 12F1 mAb 37 °C 30 min; compared with WT P5-5 (Figure 5)
Description: Indirect competitive ELISA (ic-ELISA): the inhibition ability of 12F1 mAb against P5-5 and its mutants was assessed through icELISA [16]. A coating antigen P5-5-OVA solution at a concentration of 5 μg/mL was prepared and dispensed (100 μL) into each well of a 96-well ELISA plate. The plates were then left to incubate at 4 °C overnight. Following washing, 5% (w/v) PBSM was added to each well and incubated at 37 °C for 2 h. The synthesized peptides of P5-5 and its variants were prepared as 1 mg/mL stock solution (dissolved in 0.01M PBS, pH 7.4). These peptides were then serially diluted in PBSM to concentrations of 20 μg/mL, 10 μg/mL, 5 μg/mL, 2.5 μg/mL, 1.25 μg/mL, 625 ng/mL, 312.5 ng/mL, 156.25 ng/mL, 78.13 ng/mL, 39.06 ng/mL, 19.53 ng/mL, 9.77 ng/mL, 4.88 ng/mL, 2.44 ng/mL, 1.22 ng/mL, and 0.61 ng/mL for the competitor in the ic-ELISA assay. Subsequently, 12F1 mAb was mixed thoroughly with the diluted solutions of P5-5 and its mutants at equal volume at 37 °C for 30 min incubation and reaction. Following this, each well was impressed by 100 μL of the mixture, which was then incubated at 37 °C for one hour. The succeeding stages, which included the addition of HRP-goat anti-mouse serum, TMB substrate solution, and stop solution, were carried out as described earlier. The measurement of the OD value was then taken under 450 nm. The IC50 values of the 12F1 monoclonal antibody against synthesized P5-5 and nine other mutant peptides were determined using the four-parameter logistic equations in Prism 9.0 GraphPad software (version 9.0 GraphPad Software), following the established methodology.

binding activity of 12F1 mAb (indirect ELISA, OD 450 nm) (12F1 mAb [1]) | Sequence | antigen inhibitory capability / antibody binding in ic-ELISA (12F1 mAb [2])
weak binding signals | NDALYEALRQ [Y7A, P5-5 mutant, position 7 (Tyr) mutated to alanine] | significantly reduced compared to the WT P5-5
weak binding signals | NDALAEYLRQ [Y5A, P5-5 mutant, position 5 (Tyr) mutated to alanine] | significantly reduced compared to the WT P5-5

Continued, sequence first:

Sequence | binding activity of 12F1 mAb (indirect ELISA, OD 450 nm) (12F1 mAb [1]) | antigen inhibitory capability / antibody binding in ic-ELISA (12F1 mAb [2])
NDAAYEYLRQ [L4A, P5-5 mutant, position 4 (Leu) mutated to alanine] | significantly reduced to levels similar to the negative control | entirely lost their ability to bind antibodies
NDALYAYLRQ [E6A, P5-5 mutant, position 6 (Glu) mutated to alanine] | weak binding signals | significantly reduced compared to the WT P5-5
NAALYEYLRQ [DA2, P5-5 mutant, position 2 (Asp) mutated to alanine] | weak binding signals | significantly reduced compared to the WT P5-5
NDALYEYARQ [L8A, P5-5 mutant, position 8 (Leu) mutated to alanine] | significantly reduced to levels similar to the negative control | entirely lost their ability to bind antibodies
